The values that follow come from patent publication US10968215B2 (SHANGHAI HAIHE PHARMACEUTICAL CO., LTD., priority 2016, dated 2021).

What is called IC50 is the point on the concentration scale where inhibition reaches its midpoint.

Experiment [1] concerns the target PRC2 complex (EZH2/EED/SUZ12/RbAp48/AEBP2) (Homo sapiens (Human), UniProt Q15910). Description: Activity of a compound to PRC2 complex (EZH2 wild type), ELISA. The class given is biochemical. To be noted: class symbols.
From the text: Determination of the Activity of a Compound to PRC2 Complex (EZH2 Wild Type):
Detection Method: Enzyme-Linked Immunosorbent Assay (ELISA)
MATERIALS: The PRC2 complex (EZH2/EED/SUZ12/RbAp48/AEBP2) histone methyltransferase was purchased from BPS; the substrate Biotin H3 (21-44) me0 was produced by AnaSpec; SAM was purchased from Sigma, which is GL Biochem product; methyl donor SAM was purchased from Sigma-aldrich; H3K27me3 antibody was purchased from BPS.
Experimental method: avdin of a final concentration of 100 nM was used to coat 96-well plate at 10 μL/well, placed in a wet box and shaken overnight, and then 100 μL 3% BSA per well was added and blocked for 1 h at room temperature. PRC2 complex (EZH2/EED/SUZ12/RbAp48/AEBP2), H3 (21-44) me0 substrate, methyl donor SAM and compound were added into each well of the blocked 96-well plate. The total reaction system was 100 μL, placed in a wet box and allowed to react for 1 h on shaker at room temperature. The plate was washed with TBS-T [20 mM Tris-HCl (pH 7.2-7.4, room temperature), 150 mM NaCl, 0.1% (v/v) Tween-20] for 3 times, blocked with 3% BSA for 10 min, and anti-H3K27me3 antibody was added and incubated for 1 h in a wet box on shaker at room temperature. The plate was washed again with TBS-T for 3 times, and blocked with 3% BSA per well for 10 min. Horseradish peroxidase-labeled secondary antibody was added and reacted in a wet box at room temperature for 1 h, and finally, washed with TBS-T for 3 times. 2 mg/ml OPD color developing solution (1004/well) was added for coloring, and the reaction was stopped with 2M H2SO4 (50 μL/well). The plate was read by a plate reader at 490 nm and IC50 of the compound was calculated using SoftMax Pro 5.4.1 software.
Experiment [2] deals with PRC2 complex (EZH2 Y641F/EED/SUZ12/RbAp48/AEBP2) (Homo sapiens (Human), UniProt Q15910, Y641F). In words: Activity of a compound to PRC2 complex (EZH2 Y641F), HTRF. On the technique in general: In TR-FRET formats the signal depends on donor and acceptor labels being close together.
Method: Determination of the Activity of a Compound to PRC2 Complex (EZH2Y641F):
Detection Method: Homogeneous Time-Resolved Fluorescence (HTRF)
Reaction was conducted in darkness at room temperature for 4 h. […] The IC50 values of the compounds were calculated using SoftMax Pro 5.4.1 software.
The mark [3] stands for this setting: read-out: IC50 (EZH2_Y641F), EZH2 Y641F PRC2 complex, HTRF, class symbols.

Read-outs that look alike come from different tables or passages of the source.

PRC2 complex (EZH2 Y641F/EED/SUZ12/RbAp48/AEBP2), sequence (Q15910 whole entry Y641F): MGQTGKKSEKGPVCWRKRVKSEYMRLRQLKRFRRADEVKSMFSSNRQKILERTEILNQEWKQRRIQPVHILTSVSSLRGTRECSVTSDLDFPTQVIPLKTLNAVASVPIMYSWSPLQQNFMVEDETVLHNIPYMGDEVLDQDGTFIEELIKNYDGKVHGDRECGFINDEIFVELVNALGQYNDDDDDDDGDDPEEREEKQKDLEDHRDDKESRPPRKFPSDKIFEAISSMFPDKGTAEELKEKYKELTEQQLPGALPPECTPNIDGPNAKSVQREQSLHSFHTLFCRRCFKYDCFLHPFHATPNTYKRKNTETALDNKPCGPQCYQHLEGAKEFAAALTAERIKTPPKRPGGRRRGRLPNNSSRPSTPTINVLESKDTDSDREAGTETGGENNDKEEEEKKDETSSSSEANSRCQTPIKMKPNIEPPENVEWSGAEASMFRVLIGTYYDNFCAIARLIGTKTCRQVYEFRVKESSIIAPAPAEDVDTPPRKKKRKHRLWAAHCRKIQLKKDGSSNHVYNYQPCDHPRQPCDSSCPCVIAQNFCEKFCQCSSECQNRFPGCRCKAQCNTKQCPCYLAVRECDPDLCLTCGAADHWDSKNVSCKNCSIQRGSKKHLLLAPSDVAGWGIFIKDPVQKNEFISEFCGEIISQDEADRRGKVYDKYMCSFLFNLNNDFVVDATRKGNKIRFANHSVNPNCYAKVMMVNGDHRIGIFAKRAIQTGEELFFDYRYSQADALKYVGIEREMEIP
PRC2 complex (EZH2 Y641F/EED/SUZ12/RbAp48/AEBP2), sequence (O75530 whole entry partner): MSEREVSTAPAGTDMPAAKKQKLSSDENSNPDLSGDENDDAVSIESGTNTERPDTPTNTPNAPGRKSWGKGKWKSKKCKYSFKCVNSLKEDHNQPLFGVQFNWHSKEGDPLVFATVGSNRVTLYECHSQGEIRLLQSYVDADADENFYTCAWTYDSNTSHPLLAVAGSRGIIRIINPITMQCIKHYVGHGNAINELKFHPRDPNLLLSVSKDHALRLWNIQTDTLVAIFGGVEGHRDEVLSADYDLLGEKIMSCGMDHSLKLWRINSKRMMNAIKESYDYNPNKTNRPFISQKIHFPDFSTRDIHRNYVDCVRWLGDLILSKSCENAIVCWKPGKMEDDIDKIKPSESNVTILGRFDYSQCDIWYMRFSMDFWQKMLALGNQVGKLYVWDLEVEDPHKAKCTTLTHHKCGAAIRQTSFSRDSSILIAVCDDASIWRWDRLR
PRC2 complex (EZH2 Y641F/EED/SUZ12/RbAp48/AEBP2), sequence (Q15022 whole entry partner): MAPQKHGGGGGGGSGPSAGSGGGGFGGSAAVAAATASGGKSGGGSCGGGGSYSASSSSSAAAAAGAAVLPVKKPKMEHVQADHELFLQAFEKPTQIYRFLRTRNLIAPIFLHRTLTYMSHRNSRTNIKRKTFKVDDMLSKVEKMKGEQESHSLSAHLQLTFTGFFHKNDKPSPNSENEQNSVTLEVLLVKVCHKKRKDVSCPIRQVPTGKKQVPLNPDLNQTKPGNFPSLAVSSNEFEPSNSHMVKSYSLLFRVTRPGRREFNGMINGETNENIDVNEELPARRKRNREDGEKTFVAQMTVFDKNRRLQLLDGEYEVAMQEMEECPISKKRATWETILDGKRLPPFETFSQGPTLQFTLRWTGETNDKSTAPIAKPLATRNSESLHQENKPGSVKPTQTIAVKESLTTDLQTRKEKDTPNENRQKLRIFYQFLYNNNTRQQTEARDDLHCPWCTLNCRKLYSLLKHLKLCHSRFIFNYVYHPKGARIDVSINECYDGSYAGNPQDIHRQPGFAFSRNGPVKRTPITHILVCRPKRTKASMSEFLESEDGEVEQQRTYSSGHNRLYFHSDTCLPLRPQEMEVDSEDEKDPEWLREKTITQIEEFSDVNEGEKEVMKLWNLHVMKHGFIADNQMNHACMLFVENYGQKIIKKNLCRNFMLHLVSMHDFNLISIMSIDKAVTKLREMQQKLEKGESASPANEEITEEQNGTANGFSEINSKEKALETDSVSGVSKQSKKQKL
PRC2 complex (EZH2 Y641F/EED/SUZ12/RbAp48/AEBP2), sequence (Q09028 whole entry partner): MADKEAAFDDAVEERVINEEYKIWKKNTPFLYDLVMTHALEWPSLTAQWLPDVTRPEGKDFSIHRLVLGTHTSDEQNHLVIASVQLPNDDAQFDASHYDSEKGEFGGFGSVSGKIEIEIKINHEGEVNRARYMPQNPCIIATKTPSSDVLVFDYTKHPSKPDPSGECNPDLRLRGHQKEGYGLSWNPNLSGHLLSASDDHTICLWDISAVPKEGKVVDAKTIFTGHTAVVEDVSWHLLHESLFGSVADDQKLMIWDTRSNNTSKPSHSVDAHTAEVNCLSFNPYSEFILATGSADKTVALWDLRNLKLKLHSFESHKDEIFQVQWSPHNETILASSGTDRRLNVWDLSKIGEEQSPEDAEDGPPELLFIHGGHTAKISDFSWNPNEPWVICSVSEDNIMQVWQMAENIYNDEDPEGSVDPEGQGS
PRC2 complex (EZH2 Y641F/EED/SUZ12/RbAp48/AEBP2), sequence (Q6ZN18 whole entry partner): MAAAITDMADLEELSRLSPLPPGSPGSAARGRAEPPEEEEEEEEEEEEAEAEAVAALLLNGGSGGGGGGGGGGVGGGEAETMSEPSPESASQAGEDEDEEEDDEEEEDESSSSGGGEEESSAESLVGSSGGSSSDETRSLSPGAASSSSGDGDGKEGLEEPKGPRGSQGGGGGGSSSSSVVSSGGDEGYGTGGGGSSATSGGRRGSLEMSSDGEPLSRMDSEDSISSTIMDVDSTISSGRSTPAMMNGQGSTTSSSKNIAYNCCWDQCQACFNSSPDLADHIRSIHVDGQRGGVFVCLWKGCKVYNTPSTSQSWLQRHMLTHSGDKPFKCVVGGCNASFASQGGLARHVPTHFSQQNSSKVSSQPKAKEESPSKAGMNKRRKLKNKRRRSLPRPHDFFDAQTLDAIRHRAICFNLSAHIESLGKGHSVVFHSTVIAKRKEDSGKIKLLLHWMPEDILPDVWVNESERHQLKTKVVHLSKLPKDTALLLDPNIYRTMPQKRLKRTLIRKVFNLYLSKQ
PRC2 complex (EZH2/EED/SUZ12/RbAp48/AEBP2), sequence (Q15910 whole entry): as the sequence (Q15910 whole entry Y641F) above, with F641Y counted along it
PRC2 complex (EZH2/EED/SUZ12/RbAp48/AEBP2), sequence (O75530 whole entry partner): as the sequence (O75530 whole entry partner) above
PRC2 complex (EZH2/EED/SUZ12/RbAp48/AEBP2), sequence (Q15022 whole entry partner): as the sequence (Q15022 whole entry partner) above
PRC2 complex (EZH2/EED/SUZ12/RbAp48/AEBP2), sequence (Q09028 whole entry partner): as the sequence (Q09028 whole entry partner) above
PRC2 complex (EZH2/EED/SUZ12/RbAp48/AEBP2), sequence (Q6ZN18 whole entry partner): as the sequence (Q6ZN18 whole entry partner) above

`Cc1cc(C)c(CNC(=O)c2cc3c(-c4ccc(N)nc4)ccn3c([C@H](C)N3CCN(CC(F)(F)F)CC3)c2C)c(=O)[nH]1` (single isomer, unassigned) [Compound 159, (S)-1-(6-aminopyridin-3-yl)-N-((4,6-dimethyl-2-oxo-1,2-dihydropyridin-3-yl)methyl)-6-methyl-5-(1-(4-(2,2,2-trifluoroethyl)piperazin-1-yl)ethyl)indolizine-7-carboxamide or (R) 1-(6-aminopyridin-3-yl)-N-((4,6-dimethyl-2-oxo-1,2-dihydropyridin-3-yl)methyl)-6-methyl-5-(1-(4-(2,2,2-trifluoroethyl)piperazin-1-yl)ethyl)indolizine-7-carboxamide]: the IC50 in experiment [1] and in experiment [2] (setting [3]) was under 100 nM in each case.

With `Cc1cc(C)c(CNC(=O)c2cc3c(-c4ccc(N)nc4)ccn3c(C(C)N3CCN(CC(F)(F)F)CC3)c2C)c(=O)[nH]1` (stereo not drawn) [Compound 158, 1-(6-aminopyridin-3-yl)-N-((4,6-dimethyl-2-oxo-1,2-dihydropyridin-3-yl)methyl)-6-methyl-5-(1-(4-(2,2,2-trifluoroethyl)piperazin-1-yl)ethyl)indolizine-7-carboxamide], the IC50 in experiment [1] and in experiment [2] was under 100 nM each time.

Consider `C#CCOC(C)c1c(C)c(C(=O)NCc2c(C)cc(C)[nH]c2=O)cc2cccn12` (stereo not drawn) [Example 4, N-((4,6-dimethyl-2-oxo-1,2-dihydropyridin-3-yl)methyl)-6-methyl-5-(1-(prop-2-yn-1-yloxy)ethyl)indolizine-7-carboxamide], for which the IC50 in experiment [1] and in experiment [2] (setting [3]) was 100 to 1000 nM in each case.

Consider `Cc1cc(C)c(CNC(=O)c2cc3cccn3c(C(C)OCc3ccc(F)cc3)c2C)c(=O)[nH]1` (stereo not drawn) [Example 10], for which the IC50 in experiment [1] and in experiment [2] (setting [3]) was 100 to 1000 nM throughout.

For the compound `Cc1cc(C)c(CNC(=O)c2cc3cccn3c(C(C)OCc3ccccc3F)c2C)c(=O)[nH]1` (stereo not drawn) [Example 11], the IC50 in experiment [1] and in experiment [2] (setting [3]) was 100 to 1000 nM each time.

In the case of `Cc1cc(C)c(CNC(=O)c2cc3cccn3c(C(C)OCc3cccc(F)c3)c2C)c(=O)[nH]1` (stereo not drawn) [Example 12], the IC50 in experiment [1] and in experiment [2] (setting [3]) was 100 to 1000 nM each time.

Turning to `Cc1cc(C)c(CNC(=O)c2cc3cccn3c(C(C)OCc3c(F)cccc3F)c2C)c(=O)[nH]1` (stereo not drawn) [Example 13], the IC50 in experiment [1] and in experiment [2] (setting [3]) was 100 to 1000 nM each time.

`COc1cccc(COC(C)c2c(C)c(C(=O)NCc3c(C)cc(C)[nH]c3=O)cc3cccn23)c1` (stereo not drawn) [Example 14, N-((4,6-dimethyl-2-oxo-1,2-dihydropyridin-3-yl)methyl)-5-(1-((3-methoxybenzyl)oxy)ethyl)-6-methylindolizine-7-carboxamide]: the IC50 in experiment [1] and in experiment [2] (setting [3]) was 100 to 1000 nM throughout.

With `Cc1cc(C)c(CNC(=O)c2cc3cccn3c(C(C)OCc3nccs3)c2C)c(=O)[nH]1` (stereo not drawn) [Example 18, N-((4,6-dimethyl-2-oxo-1,2-dihydropyridin-3-yl)methyl)-6-methyl-5-(1-(thiazole-2-ylmethoxy)ethyl)indolizine-7-carboxamide], the results for the IC50 in experiment [1] and in experiment [2] (setting [3]) were 100 to 1000 nM and under 100 nM, respectively.

`Cc1cc(C)c(CNC(=O)c2cc3cccn3c(C(C)OCc3ccsc3)c2C)c(=O)[nH]1` (stereo not drawn) [Example 19, N-((4,6-dimethyl-2-oxo-1,2-dihydropyridin-3-yl)methyl)-6-methyl-5-(1-(thiophene-3-ylmethoxy)ethyl)indolizine-7-carboxamide]: the IC50 in experiment [1] and in experiment [2] (setting [3]) was 100 to 1000 nM throughout.

On to `Cc1cc(C)c(CNC(=O)c2cc3cccn3c(C(C)OCc3ccn(C)n3)c2C)c(=O)[nH]1` (stereo not drawn) [Example 20], for which the half-maximal inhibitory concentration (IC50) in experiment [1] and in experiment [2] (setting [3]) was 100 to 1000 nM throughout.

`Cc1cc(C)c(CNC(=O)c2cc3cccn3c(C(C)c3ccccc3)c2C)c(=O)[nH]1` (stereo not drawn) [Example 25, N-((4,6-dimethyl-2-oxo-1,2-dihydropyridin-3-yl)methyl)-6-methyl-5-(1-phenylethyl)indolizine-7-carboxamide]: the IC50 is under 100 nM in experiment [1] and 100 to 1000 nM in experiment [2] (setting [3]).

As to `Cc1cc(C)c(CNC(=O)c2cc3cccn3c(N(C)C3CCOCC3)c2C)c(=O)[nH]1` [Example 55, N-((4,6-dimethyl-2-oxo-1,2-dihydropyridin-3-yl)methyl)-6-methyl-5-(methyl(tetrahydro-2H-pyran-4-yl)amino)indolizine-7-carboxamide], the IC50 in experiment [1] and in experiment [2] (setting [3]) was 100 to 1000 nM in each case.

For `Cc1cc(C)c(CNC(=O)c2cc3cc(Br)cn3c(N(C)C3CCOCC3)c2C)c(=O)[nH]1` [Example 57], the IC50 in experiment [1] was under 100 nM.
